Measurements reported in publication PMC3017052, “A Novel Peptide Derived from Human Apolipoprotein E Is an Inhibitor of Tumor Growth and Ocular Angiogenesis” (PLoS ONE, 2011).

Tests used:
[1] = tested on: VEGF-induced corneal angiogenesis; experiment: Rabbit corneal micropocket assay (VEGF-induced angiogenesis); assay type: in vivo; conditions: 160 ng VEGF pellet, topical 1% eye drops 50 µL 5 times per day for 5 days, compared to saline treated eyes
Procedure: To study the in vivo anti-angiogenic effect of apoEdp, we assessed its inhibitory effect on VEGF-induced corneal micro-pocket assay in rabbit eye model. The slow release micropellet (500 µm×500 µm) of 0.4 g of Compritol 888 ATO (Gattefosse) combined with 0.1 g of Squalane oil (Sigma) and 20 mg/mL L-α-phosphatidylcholine containing saline or 160 ng of VEGF were surgically implanted in the corneal micropocket created in the avascular area of rabbit cornea (Fig. 5A–B).
Figure 5 ApoEdp inhibits angiogenesis in rabbit corneal micropocket assay. Slow-releasing micro pellets (500 µm×500 µm) containing 160 ng of VEGF were corneally implanted in New Zealand white rabbits (1.5–2.5 kg). […] (A)The area of neovascular response, vessel length, and clock hours of new blood vessel of rabbits in each group were calculated according to the formula Area (mm^2) = C/12×3.1416 [r^2−(r−L)^ 2] where C = the number of clock hours at the limbus involved in the neovascular response, L = length of the longest neovascular pedicle from the limbus onto anterior cornea, and r = radius of the cornea. […]
Corneal micropockets were created with a modified von Graefe cataract knife in eyes of each […] NZ white rabbit. […] The area of neovascular response, vessel length, and clock hours of new blood vessels of the rabbits in each group were calculated according to the formula [55]. […]

MDA-MB-231 cells = assay type: cell-based, human; conditions: 48 h
Procedure: To confirm that apoEdp affects cell survival, cell viability was determined using the cell titer 96®AQuous One solution cell proliferation kit. ApoEdp treatment of HUVECs induced a dose-dependent inhibition of cell viability (Fig. 1A). […] To determine whether apoEdp suppresses tumor growth by directly affecting tumor cells, we performed a cell viability assay using human breast cancer MDA-MB-231 cell line in vitro and cell titer 96®AQuous One solution cell proliferation kit.
Figure 1 ApoEdp affects HUVEC survival but not MDA-MB-231. A. HUVEC: ApoEdp has a significant effect on VEGF-induced HUVEC viability. Cells were treated with apoEdp at the indicated concentrations and incubated with constant 50 ng/mL VEGF for 48 hr. All values were normalized to cell control of no VEGF and no apoEdp. Cell viability values (mean ± SEM) are expressed as % of the value of the VEGF control. B. MDA-MB-231: ApoEdp has no effect on MDA-MB-231viability. ApoEdp has no significant effect on MDA-MB-231 survival. […] Cell viability values (mean ± SEM) are expressed as % of the value of the control (untreated cells). […]
Cell survival studies were carried out using the CellTiter96 AQueous One solution cell survival assay. […] The cells were incubated for 48 hr and then the AQueous One solution was added to the samples and measured at 490 nm.

[2] = tested on: VEGF-induced phosphorylation of Flk1, c-Src, Akt, eNOS, FAK, Erk1/2 in HUVECs; experiment: Western blot of VEGF-induced phosphorylation of angiogenic signaling molecules; assay type: cell-based, human; conditions: HUVEC, apoEdp 6–50 µM pre-treated 1 hr, VEGF 10 ng/mL 10 min, n = 5
Procedure: Figure 7 Inhibition by apoEdp of VEGF-induced Flk-1. HUVECs were pre-treated with apoEdp at the indicated concentrations for 1 hr; VEGF (10 ng/mL) added and incubated at 37°C for 10 min, to measure the phosphorylation of Flk-1(7-A), c-Src(7-B), Akt(7-C), eNOS(7-D), FAK(7-E), and Erk1/2(7-F). Equal loading of total proteins was also measured as described in Materials and Methods. Values were normalized by arbitrarily setting the densitometry of control cell signals 1.0 (mean ± SEM, n = 5). The asterisks indicate significant differences compared with VEGF stimulation (*p<0.05, **p<0.01 and ***p<0.001).
Confluent HUVECs were grown in EBM-2 supplemented with 1% FBS for 24 hr and the medium was replaced with fresh low serum (1% FBS) media in the presence or absence of varying concentrations of apoEdp (6–50 µM). After 1 hr, VEGF was added to a concentration of 10 ng/mL and incubated for 10 min so that the phosphorylated forms of angiogenic signaling molecules could be detected. The cells were then lysed, quantified for protein concentration, and separated on 4–20% pre-cast SDS–PAGE gels. Western blots of control and treated lysates were performed with antibodies against the phospho form of Flk-1, c-Src, FAK, ERK1/2, Akt, and eNOS. […] All primary and secondary antibodies were obtained from Santa Cruz Biotechnology (Santa Cruz, CA).

Ac-LRKLRKRLLLRKLRKRLL-NH2 [apoEdp]
VEGF-induced angiogenesis in rabbit corneal micropocket [1]: significantly inhibited VEGF-induced angiogenesis | 50% cytotoxic dose (CC50), MDA-MB-231 viability (MDA-MB-231 cells): > 300 µM | VEGF-induced phosphorylation of Flk1, c-Src, Akt, eNOS, FAK and Erk1/2 [2]: significantly inhibited
